≈ marks a conversion by molar mass, not a printed value.
Tests used:
[1] = tested on: Escherichia coli; assay: Ratio of Kcat to Km in Escherichia coli beta-lactamase SHV-84
[2] = tested on: Escherichia coli; assay: Activity at Escherichia coli beta-lactamase SHV-84
[3] = tested on: Escherichia coli; assay: Antimicrobial activity against Escherichia coli INSRA4590 expressing SHV-84; format: functional
[4] = tested on: Escherichia coli; assay: Antimicrobial activity against Escherichia coli DH5alpha expressing SHV-1; format: functional
[5] = tested on: Escherichia coli; assay: Antimicrobial activity against Escherichia coli INSRA4590 expressing SHV-84 in presence of 2 ug/ml clavulanic acid beta-lactamase inhibitor; format: functional
[6] = tested on: Escherichia coli; assay: Antimicrobial activity against Escherichia coli DH5alpha expressing SHV-84; format: functional
[7] = tested on: Escherichia coli; assay: Antimicrobial activity against Escherichia coli DH5alpha expressing SHV-84 in presence of 2 ug/ml clavulanic acid beta-lactamase inhibitor; format: functional
[8] = tested on: Escherichia coli; assay: Antimicrobial activity against Escherichia coli DH5alpha expressing SHV-1 in presence of 2 ug/ml clavulanic acid beta-lactamase inhibitor; format: functional
[9] = tested on: Escherichia coli; assay: Antimicrobial activity against Escherichia coli DH5alpha in presence of 2 ug/ml clavulanic acid beta-lactamase inhibitor; format: functional
[10] = tested on: Escherichia coli; assay: Antimicrobial activity against Escherichia coli DH5alpha; format: functional
[11] = tested on: Escherichia coli; assay: Antimicrobial activity against Escherichia coli DH5alpha expressing SHV-84 in presence of 4 ug/ml Tazobactam beta-lactamase inhibitor; format: functional
[12] = tested on: Escherichia coli; assay: Antimicrobial activity against Escherichia coli INSRA4590 expressing SHV-84 in presence of 4 ug/ml Tazobactam beta-lactamase inhibitor; format: functional
[13] = tested on: Escherichia coli; assay: Antimicrobial activity against Escherichia coli DH5alpha in presence of 4 ug/ml Tazobactam beta-lactamase inhibitor; format: functional
[14] = tested on: Escherichia coli; assay: Antimicrobial activity against Escherichia coli DH5alpha expressing SHV-1 in presence of 4 ug/ml Tazobactam beta-lactamase inhibitor; format: functional
[15] = substrate: CC(=O)OCC1=C(C(=O)O)N2C(=O)[C@@H](NC(=O)Cc3cccs3)[C@H]2SC1; assay: (§1) Activity at Escherichia coli beta-lactamase SHV-1
[16] = substrate: CO/N=C(\C(=O)N[C@@H]1C(=O)N2C(C(=O)O)=C(COC(C)=O)CS[C@H]12)c1csc(N)n1; assay: as §1
[17] = substrate: CC(C)(O/N=C(\C(=O)N[C@@H]1C(=O)N2C(C(=O)[O-])=C(C[n+]3ccccc3)CS[C@H]12)c1csc(N)n1)C(=O)O; assay: as §1
[18] = substrate: CC1(C)S[C@@H]2[C@H](NC(=O)[C@H](N)c3ccc(O)cc3)C(=O)N2[C@H]1C(=O)O; assay: as §1
[19] = substrate: CC1(C)S[C@@H]2[C@H](NC(=O)Cc3ccccc3)C(=O)N2[C@H]1C(=O)O; assay: as §1
[20] = substrate: CCN1CCN(C(=O)N[C@@H](C(=O)N[C@@H]2C(=O)N3[C@@H]2SC(C)(C)[C@@H]3C(=O)O)c2ccccc2)C(=O)C1=O; assay: as §1
[21] = substrate: CC1(C)S[C@@H]2[C@H](NC(=O)[C@H](C(=O)O)c3ccsc3)C(=O)N2[C@H]1C(=O)O; assay: as §1
[22] = substrate: CC1(C)S[C@@H]2[C@H](NC(=O)[C@H](N)c3ccc(O)cc3)C(=O)N2[C@H]1C(=O)O; assay: (§2) Ratio of Kcat to Km in Escherichia coli beta-lactamase SHV-1
[23] = substrate: CC1(C)S[C@@H]2[C@H](NC(=O)Cc3ccccc3)C(=O)N2[C@H]1C(=O)O; assay: as §2
[24] = substrate: CCN1CCN(C(=O)N[C@@H](C(=O)N[C@@H]2C(=O)N3[C@@H]2SC(C)(C)[C@@H]3C(=O)O)c2ccccc2)C(=O)C1=O; assay: as §2
[25] = substrate: CC1(C)S[C@@H]2[C@H](NC(=O)[C@H](C(=O)O)c3ccsc3)C(=O)N2[C@H]1C(=O)O; assay: as §2

Molecule | kcat/Km [1] | Km [2] | kcat [2] | MIC [3] | MIC [4] | MIC [6] | MIC [10] | also measured
CC1(C)S[C@@H]2[C@H](NC(=O)Cc3ccccc3)C(=O)N2[C@H]1C(=O)O | 9.5e+06 M⁻¹ s⁻¹ | 64 µM | 611 s⁻¹ | – | – | – | – | –
CC1(C)S[C@@H]2[C@H](NC(=O)[C@H](N)c3ccc(O)cc3)C(=O)N2[C@H]1C(=O)O [AMOXICILLIN] | 1.04e+07 M⁻¹ s⁻¹ | 101 µM | 1040 s⁻¹ | 512 µg/mL (≈ 1400 µM) | 2050 µg/mL (≈ 5600 µM) | 2050 µg/mL (≈ 5600 µM) | ≤ 2 µg/mL | MIC [5]: 64 µg/mL; MIC [7]: > 64 µg/mL; MIC [8]: 8 µg/mL; MIC [9]: ≤ 2 µg/mL
C[C@H]1[C@H](NC(=O)/C(=N\OC(C)(C)C(=O)O)c2csc(N)n2)C(=O)N1S(=O)(=O)O [AZTREONAM] | – | – | – | 0.03 µg/mL (≈ 0.0689 µM) | – | 0.03 µg/mL (≈ 0.0689 µM) | – | –
CO/N=C(\C(=O)N[C@@H]1C(=O)N2C(C(=O)O)=C(COC(C)=O)CS[C@H]12)c1csc(N)n1 [CEFOTAXIME] | – | – | < 0.1 s⁻¹ | 0.125 µg/mL (≈ 0.274 µM) | 0.06 µg/mL (≈ 0.132 µM) | 0.06 µg/mL (≈ 0.132 µM) | ≤ 0.015 µg/mL | –
CC(C)(O/N=C(\C(=O)N[C@@H]1C(=O)N2C(C(=O)[O-])=C(C[n+]3ccccc3)CS[C@H]12)c1csc(N)n1)C(=O)O [CEFTAZIDIME] | – | – | < 0.1 s⁻¹ | 0.25 µg/mL (≈ 0.457 µM) | 0.5 µg/mL (≈ 0.915 µM) | 0.25 µg/mL (≈ 0.457 µM) | 0.06 µg/mL (≈ 0.11 µM) | –
CC(=O)OCC1=C(C(=O)O)N2C(=O)[C@@H](NC(=O)Cc3cccs3)[C@H]2SC1 [CEPHALOTHIN] | 20000 M⁻¹ s⁻¹ | 169 µM | 4 s⁻¹ | 8 µg/mL (≈ 20.2 µM) | 16 µg/mL (≈ 40.4 µM) | 8 µg/mL (≈ 20.2 µM) | 1 µg/mL (≈ 2.52 µM) | –
CCN1CCN(C(=O)N[C@@H](C(=O)N[C@@H]2C(=O)N3[C@@H]2SC(C)(C)[C@@H]3C(=O)O)c2ccccc2)C(=O)C1=O [PIPERACILLIN] | 6e+06 M⁻¹ s⁻¹ | 68 µM | 406 s⁻¹ | 64 µg/mL (≈ 124 µM) | 64 µg/mL (≈ 124 µM) | 128 µg/mL (≈ 247 µM) | 1 µg/mL (≈ 1.93 µM) | MIC [11]: 2 µg/mL; MIC [12]: 4 µg/mL; MIC [13]: 1 µg/mL; MIC [14]: 2 µg/mL
CC1(C)S[C@@H]2[C@H](NC(=O)[C@H](C(=O)O)c3ccsc3)C(=O)N2[C@H]1C(=O)O [TICARCILLIN] | 2.5e+06 M⁻¹ s⁻¹ | 83 µM | 216 s⁻¹ | > 4100 µg/mL | 1020 µg/mL (≈ 2660 µM) | > 4100 µg/mL | ≤ 2 µg/mL | –
Beta-lactamase SHV-1 (Escherichia coli), P0AD63 (protein) MRYIRLCIISLLATLPLAVHASPQPLEQIKLSESQLSGRVGMIEMDLASGRTLTAWRADERFPMMSTFKVVLCGAVLARVDAGDEQLERKIHYRQQDLVDYSPVSEKHLADGMTVGELCAAAITMSDNSAANLLLATVGGPAGLTAFLRQIGDNVTRLDRWETELNEALPGDARDTTTPASMAATLRKLLTSQRLSARSQRQLLQWMVDDRVAGPLIRSVLPAGWFIADKTGAGERGARGIVALLGPNNKAERIVVIYLRDTPASMAERNQQIAGIGAALIEHWQR | – | – | – | – | – | – | – | Km [15]: 40 µM; kcat [15]: 128 s⁻¹; kcat [16]: < 0.1 s⁻¹; kcat [17]: < 0.1 s⁻¹; Km [18]: 31 µM; Km [19]: 23 µM; kcat [19]: 1940 s⁻¹; Km [20]: 24 µM; kcat [20]: 1490 s⁻¹; Km [21]: 11 µM; kcat [21]: 220 s⁻¹; kcat/Km [22]: 3.37e+07 M⁻¹ s⁻¹; kcat/Km [23]: 8.42e+07 M⁻¹ s⁻¹; kcat/Km [24]: 6.21e+07 M⁻¹ s⁻¹; kcat/Km [25]: 2e+07 M⁻¹ s⁻¹
